According to patent publication US6406701B1, “Method and compositions for preventing or reducing HIV infection” (priority 2000, dated 2002):
Read-outs that look alike come from different tables or passages of the source.

How the values were obtained:
[1] = system: HUT78 cells; test: Extracellular LAPase activity of HUT78 cells incubated with 17-β-Estradiol; type: cell-based
[2] = system: breast carcinoma parental cells; test: LAPase release from primary breast carcinoma parental cells after estrogen stimulation (supernatants immunoprecipitated with MAb 7B6, fluorometric assay); type: cell-based, human
Description: (§1) Control cells were cultured in the absence of 17-β-Estradiol.). During the same period, LAPase in cell supernatants of control cells remain unchanged. In addition, LAPase activity was determined in supernatants of primary parental cell lines immunoprecipitated with anti-LAP-Protein G MAb 7B6 bound antibodies. […] In addition, there was no effect of estrogen incubation on LAPase activity in purified preparations of this enzyme alone.
Primary parental breast carcinoma cells obtained from human tumour biopsies were stimulated with 100 nM 17-β-Estradiol for 24 hours or cell media alone as a control. The cell media was RPMI 1640 medium+10% FCS+100 U/ml Penicillin+100 μg/ml Streptomycin. Cell supernatants were collected and then dialyzed against PBS in seamless cellulose tubing (MW 12,400) for 12 hours at 4° C. Es-LAPase was subsequently purified from the dialyzed cell supernatants using HPLC-gel permeation followed by DEAE-Cellulose and Bestatin-Sepharose affinity Chromatography. Briefly, the cell supernatant was applied to a Bio-Sil SEC-250 column (600×7.5 mm) previously equilibrated in a buffer containing 100 mM Sodium Phosphate buffer pH 6.8, 100 mM Na2SO4, 1 μM ZnCl2 and 10% glycerol. […]
Es-LAPase activities were determined fluorometrically using leucine-b-naphthylamide as the substrate [Kuramochi, H., et al. (1987) J. Antibiot., 40,1605-1611].

[3] = system: LAPase; test: Estrogen incubation with purified LAPase preparations; type: biochemical; settings: purified enzyme alone
Description: as §1

[4] = system: HIV; test: HIV infectivity of HUT78 cells by reverse transcriptase activity with or without 17-β-Estradiol; settings: for RT Activity: estrogen 10^−7 M
Description: The sensitivity of CD4^+ T-HUT78 cells to HIV viral infection was determined by measuring the activity of reverse transcriptase in cells infected in the presence/absence of 17-β-Estradiol.

[5] = system: HIV-1 (HTLVIIIb); type: cell-based; settings: for Cytopathicity / Proviral Load: anti-estrogen 10^−7M combined with Mab 7B6 and thioredoxin matrices
Description: (§2) In the continued presence of each of the factors aforementioned, the cells were subsequently infected at a multiplicity of two infective viral particles per cell for two hours at 25° C. with constant agitation in a final volume of 1.0 ml. […] Syncytium formation was evaluated by light microscopy on days 3, 5 and 7.

[6] = system: HIV-1 (HTLVIIIb); type: cell-based; settings: Day 5 post-infection; anti-estrogen 10^−7M combined with Mab 7B6 and thioredoxin matrices
Description: as §2
Prior to infection, HUT78 cells were washed three times with PBS and the cell viability was determined. Infection was performed as described above. At indicated time intervals, 1.0 mil aliquots of were taken and p24 antigen quantified using a commercial ELISA kit (p24 Antigen Capture ELISA, ABBOTT Diagnostics Division), following the instructions of the manufacturer.

[7] = system: es-LAPase; test: es-LAPase enzyme kinetics and inhibition (l-leucine-β-naphthylamide, 330 nm); type: biochemical, human; settings: for es-LAPase reaction rate versus control es-LAPase (FIG. 3): 167 μM Bestatin, 167 μM reduced glutathione, 17 μM reduced thioredoxin; for mode of es-LAPase inhibition: from Vmax, Km, Ki of Table 4
Description: The kinetic assays were performed using a Spectronic Genesys 5 spectrophotometer from Milton Roy (Rochester, N.Y.). Absorbance was recorded every sixty seconds, over a period of 30 min. Enzyme kinetic assays were performed using 8.0×10^−2 U of es-LAPase in a final reaction volume of 600 μl and triplicate samples. […] A corresponding blank without es-LAPase was used as baseline. Both of the cuvettes were transferred to the spectrophotometer where the 1-leucine-β-naphthylamide solution was added last, marking time zero of the reaction.

[8] = system: HIV; settings: Tamoxifen concentrations of 10^−6M or higher; cited from earlier work
[9] = es-LAPase with 167 μM inhibitor

For 17-β-Estradiol, the “concentration of maximum stimulation of LAPase release” value [1] was 10^−7 M, the “LAPase activity, 17-β-Estradiol Stimulation” value ([1]; [β-Estradiol] 10^−5 M) was 10.8 U* × 10^−5/ml and the “LAPase activity, 17-β-Estradiol Stimulation” value ([1]; [β-Estradiol] 10^−6 M) was 20.4 U* × 10^−5/ml. For the same molecule, the “LAPase activity, 17-β-Estradiol Stimulation” value ([1]; [β-Estradiol] 10^−7 M) was 148.6 U* × 10^−5/ml, the “LAPase activity, 17-β-Estradiol Stimulation” value ([1]; [β-Estradiol] 10^−8 M) was 110.7 U* × 10^−5/ml and the “extracellular LAPase activity of estrogen stimulated cells” value ([2]; 100 nM, 24 hours, supernatants immunoprecipitated with anti-LAP-Protein G MAb 7B6) was 7.7×10^−5 U/ml. The “estrogen concentration of maximum release of LAPase” value ([2]; breast carcinoma parental cells, 24 hours of incubation) was 100 nM, the “effect of estrogen incubation on LAPase activity in purified preparations of the enzyme” value [3] was “no effect” and the “HIV viral infectivity (RT activity) relative to control cells infected in the absence of estrogen” value ([4]; 3 days and 5 days post infection) was “approximately 4 times”. The “RT Activity” value ([4]; Day 0 (Infection)) was 0.68 cpm × 10^2/10 μl, the “RT Activity” value ([4]; Day 3 (Post Infection)) was 72.42 cpm × 10^2/10 μl and the “RT Activity” value ([4]; Day 5 (Post Infection)) was 124.44 cpm × 10^2/10 μl.

For `C#C[C@]1(O)CC[C@H]2[C@@H]3CC[C@H]4C[C@@H](O)CC[C@@H]4[C@H]3CC[C@@]21C` [3β,5α-tetrahydro Norethisterone], the Cytopathicity ([5]; Day 5 post-infection) was 0 Syncytia/well, the “Proviral Load” value ([5]; Day 5 post-infection) was 2 copies and the P24 [6] was 0 nmol/mL.

For `C[C@]12CCC(=O)C(O)=C1CC[C@@H]1[C@@H]2CC[C@]2(C)C(=O)CC[C@@H]12` [4-hydroxyandrostenedione], the Cytopathicity ([5]; Day 5 post-infection) was 4.0 ± 0.4 Syncytia/well, the “Proviral Load” value ([5]; Day 5 post-infection) was 12 copies and the P24 [6] was 0.02 ± .001 nmol/mL.

In the case of `CC(C)C[C@H](NC(=O)[C@@H](O)[C@H](N)Cc1ccccc1)C(=O)O` [Bestatin], the “es-LAPase reaction rate versus control es-LAPase (FIG. 3)” value [7] is reported as “clearly inhibits”, the Vmax [7, 9] is reported as 34.0 ± 3.9 10^−6 M/min and the “mode of es-LAPase inhibition” value [7] is reported as “competitive”. It also gave an HIV-1 proviral copies ([5]; Day 0 post-infection, 120 μg/ml) of 0 copies, an HIV-1 proviral copies ([5]; Day 3 post-infection, 120 μg/ml) of 7 ± 2 copies and an HIV-1 proviral copies ([5]; Day 5 post-infection, 120 μg/ml) of 29 ± 3 copies. For the same molecule, the HIV-1 proviral copies ([5]; Day 7 post-infection, 120 μg/ml) was 457 ± 12 copies.

With `CC/C(=C(/c1ccc(OCCN(C)C)cc1)c1cccc(O)c1)c1ccccc1` [Droloxifene] the Cytopathicity ([5]; Day 5 post-infection) was 5.2 ± 0.6 Syncytia/well, the “Proviral Load” value ([5]; Day 5 post-infection) was 14 copies and the P24 [6] was 0.04 ± .003 nmol/mL.

With `N[C@@H](CCC(=O)N[C@@H](CS)C(=O)NCC(=O)O)C(=O)O` [Glutathione] the “es-LAPase reaction rate versus control es-LAPase (FIG. 3)” value [7] was “significant slower rates”, the Vmax [7, 9] was 17.2 ± 1.5 10^−6 M/min and the “mode of es-LAPase inhibition” value [7] was “noncompetitive”.

In the case of `CC/C(=C(\c1ccc(I)cc1)c1ccc(OCCN2CCCC2)cc1)c1ccccc1` [Idoxifene], the Cytopathicity ([5]; Day 5 post-infection) is reported as 0 Syncytia/well, the “Proviral Load” value ([5]; Day 5 post-infection) is reported as 0 copies and the P24 [6] is reported as 0 nmol/mL.

In the case of `O=C(c1ccc(OCCN2CCCCC2)cc1)c1c(-c2ccc(O)cc2)sc2cc(O)ccc12` [Raloxifene], the Cytopathicity ([5]; Day 5 post-infection) is reported as 3.3 ± 0.1 Syncytia/well, the “Proviral Load” value ([5]; Day 5 post-infection) is reported as 8 copies and the P24 [6] is reported as 0.01 ± .002 nmol/mL.

With `CC/C(=C(\c1ccccc1)c1ccc(OCCN(C)C)cc1)c1ccccc1` [Tamoxifen] the Cytopathicity ([5]; Day 5 post-infection) was 0 Syncytia/well, the “Proviral Load” value ([5]; Day 5 post-infection) was 0 copies and the P24 [6] was 0 nmol/mL. The “inhibition of HIV infection” value [8] was “incomplete inhibition”.

B1: Thioredoxin: Human Thioredoxin purified from CD4+ T MP6 cells; uncompetitive inhibitor of es-LAPase; also linked to EDC/DADPA matrix (protein, UniProt P10599 2-105, looked up)
Thioredoxin: VKQIESKTAFQEALDAAGDKLVVVDFSATWCGPCKMIKPFFHSLSEKYSNVIFLEVDVDDCQDVASECEVKCMPTFQFFKKGQKVGEFSGANKEKLEATINELV
modifications: linked to EDC/DADPA matrix
In the case of B1, the “es-LAPase reaction rate versus control es-LAPase (FIG. 3)” value [7] is reported as “significant slower rates”, the Km ([7]; es-LAPase with 17 μM inhibitor) is reported as 23.4 ± 0.6 µM and the Vmax ([7]; es-LAPase with 17 μM inhibitor) is reported as 5.31 ± 0.02 10^−6 M/min. For the same molecule, the “mode of es-LAPase inhibition” value [7] was “uncompetitive”, the HIV-1 proviral copies ([5]; Day 0 post-infection, matrix-bound, 40 ng/5 ml) was 0 copies and the HIV-1 proviral copies ([5]; Day 3 post-infection, matrix-bound, 40 ng/5 ml) was 4 ± 1 copies. For the same molecule, the HIV-1 proviral copies ([5]; Day 5 post-infection, matrix-bound, 40 ng/5 ml) was 12 ± 3 copies, the HIV-1 proviral copies ([5]; Day 7 post-infection, matrix-bound, 40 ng/5 ml) was 122 ± 8 copies and the “number of HIV-1 proviral copies compared to control cells (in words)” value ([5]; matrix-bound, incubated with HUT 78 cells 7 hours prior to infection) was “significantly reduces”.
